Laboratory results reported in patent US6486199B1, “Spiro and dispiro 1,2,4-trioxolane antimalarials” (Medicines for Malaria Venture MMV International Centre …, priority 2001, dated 2002).
Values after ≈ are worked out from the molar mass of the structure shown. Read-outs that look alike come from different tables or passages of the source.

Experiments:
P. berghei [1] = assay: 1-day Peters test against P. berghei in vivo; settings: 1 day, po
[2] = system: chloroquine-sensitive NF54 strain of P. falciparum; assay: in vitro screen against chloroquine-sensitive NF54 strain of P. falciparum; assay type: cell-based; settings: for IC50: Plasmodium falciparum
[3] = system: ANKA strain of P. Berghei; assay: single dose STI in vivo screen in infected Moro SPF mice; settings: for Activity (%) po / Activity (%) sc / inhibition in vivo at 10 mg/kg: percent reduction in parasitemia day 3 post-infection; for antimalarial activity, overall assessment: overall judgement of in vitro and in vivo data of Table 2; for inhibition in vivo at 10 mg/kg: Plasmodium berghei, 72 h; for in vivo activity: 10 mg/kg po/sc data of Table 2
Experimental: In the single dose STI in vivo screen, Moro SPF mice infected with the ANKA strain of P. Berghei (groups of three mice) were treated on day one post-infection with trioxolanes dissolved or suspended in 3% ethanol and 7% Tween 80. […] Antimalarial activity was measured by percent redution in parasitemia on day three post-infection and survival times compared to an untreated control group. Survival to day 30 post-infection is considered to be a cure.

[4] = system: chloroquine-resistant K1 strain of P. falciparum; assay: in vitro screen against chloroquine-resistant K1 strain of P. falciparum; assay type: cell-based; settings: for IC50: Plasmodium falciparum; for in vitro potency: strains not distinguished
[5] = differential scanning calorimetry (DSC), thermal stability; assay type: physicochemical; settings: thermal decomposition
P. berghei [6] = assay: 4-day Peters test against P. berghei in vivo; settings: 4 day, po
[7] = single 100 mg/kg po, survival to day 30 = cure
[8] = single 100 mg/kg sc, survival to day 30 = cure
[9] = in vitro, K1 strain, read-out: IC50 (ng/ml) K1
[10] = in vitro, NF54 strain, read-out: IC50 (ng/ml) NF54
[11] = NF54, read-out: IC50 (ng/ml) NF54
[12] = in vitro, K1 and NF54 strains not distinguished, read-out: IC50

CCO[C@H]1O[C@@H]2O[C@@]3(C)CC[C@H]4[C@H](C)CC[C@@H]([C@H]1C)[C@@]24OO3 [Arteether, arteether, reference compound]
P. berghei (1 day) ED50 po (P. berghei [1]): 2.4 mg/kg
P. berghei (1 day) ED90 po (P. berghei [1]): 6.8 mg/kg
IC50 (ng/ml) NF54 ([2]; in vitro, NF54 strain): 0.54 ng/mL (≈ 0.00173 µM)
Activity (%) po ([3]; single 10 mg/kg po): 98%
Activity (%) sc ([3]; single 10 mg/kg sc): 100%
Activity (%) po ([3]; single 100 mg/kg po): 99.98%
Activity (%) sc ([3]; single 100 mg/kg sc): 100%
Survival (days) po ([3]; single 10 mg/kg po): 8 days
Survival (days) sc ([3]; single 10 mg/kg sc): 9.7 days
Survival (days) po [3, 7]: 12 days
Survival (days) sc [3, 8]: 26.3 days

C[C@@H]1CC[C@H]2[C@@H](C)C(=O)O[C@@H]3O[C@@]4(C)CC[C@@H]1[C@]32OO4 [Artemisinin, artemisinin, reference compound]
IC50 [4, 9]: 1.2 ng/mL (≈ 0.00425 µM)
ED50 (P. berghei [1]; Plasmodium berghei, 24 h, read-out: P. berghei (1 day) ED50 po): 9.1 mg/kg
ED90 (P. berghei [1]; Plasmodium berghei, 24 h, read-out: P. berghei (1 day) ED90 po): 14 mg/kg
IC50 [2, 10]: 1.9 ng/mL (≈ 0.00673 µM)
Activity (%) po ([3]; single 10 mg/kg po): 65%
Activity (%) sc ([3]; single 10 mg/kg sc): 87%
Activity (%) po ([3]; single 100 mg/kg po): 98%
Activity (%) sc ([3]; single 100 mg/kg sc): 100%
Survival (days) po ([3]; single 10 mg/kg po): 6.5 days
Survival (days) sc ([3]; single 10 mg/kg sc): 7.0 days
Survival (days) po [3, 7]: 7.3 days
Survival (days) sc [3, 8]: 14 days

C1CCC2(CC1)OOC1(CCCCC1)O2 [OZ01, 7,14,15-Trioxadispiro[5.1.5.2]pentadecane]
IC50 ([4]; K1, read-out: IC50 (ng/ml) K1): > 100 ng/mL
IC50 [2, 11]: > 100 ng/mL
antimalarial activity, overall assessment [3]: less active
Activity (%) po ([3]; single 100 mg/kg po): 0/0%
Activity (%) sc ([3]; single 100 mg/kg sc): 0/0%
Survival (days) po [3, 7]: 5.3/5.3 days
Survival (days) sc [3, 8]: 5.3/5.3 days

O=C1CCC2(CC1)OOC1(CCCCC1)O2 [OZ02, 3-Oxo-7,14,15-trioxadispiro[5.1.5.2]pentadecane]
IC50 [4, 9]: > 100 ng/mL
Tm dec. (° C.) [5]: 193.3 °C
IC50 [2, 10]: 94 ng/mL (≈ 0.415 µM)
antimalarial activity, overall assessment [3]: less active
Activity (%) po ([3]; single 100 mg/kg po): 0/0%
Activity (%) sc ([3]; single 100 mg/kg sc): 0/0%
Survival (days) po [3, 7]: 5.0/5.0 days
Survival (days) sc [3, 8]: 5.0/5.0 days

FC1CCCCC12OOC1(CCCCC1)O2 (stereo not drawn) [OZ06, 1-Fluoro-7,14,15-trioxadispiro[5.1.5.2]pentadecane]
IC50 ([4]; K1, read-out: IC50 (ng/ml) K1): 18 ng/mL (≈ 0.0782 µM)
IC50 [2, 11]: 22 ng/mL (≈ 0.0955 µM)
antimalarial activity, overall assessment [3]: less active
Survival (days) po [3, 7]: 1.0/1.0 days
Survival (days) sc [3, 8]: 1.0/1.0 days

C1CCC2(CC1)OOC1(CCC3(CC1)OOC1(CCCCC1)O3)O2 (stereo not drawn) [OZ09, 7,12,19,20,23,24-Hexaoxatetraspiro[5.1.2.1.5.2.2.2]tetracosane]
IC50 ([4]; K1, read-out: IC50 (ng/ml) K1): 32 ng/mL (≈ 0.094 µM)
Tm dec. (° C.) [5]: 196.5 °C
IC50 [2, 11]: 39 ng/mL (≈ 0.115 µM)
antimalarial activity, overall assessment [3]: less active

O=C(NN=C1CCC2(CC1)OOC1(O2)C2CC3CC(C2)CC1C3)Nc1ccccc1 (stereo not drawn) [OZ30, Adamantane-2-spiro-3′-1′,2′,4′-trioxaspiro[4.5]decan-8′-one 4-phenylsemicarbazone]
IC50 ([4]; K1, read-out: IC50 (ng/ml) K1): 0.65 ng/mL (≈ 0.00158 µM)
IC50 [4, 12]: < 5 ng/mL
Tm dec. (° C.) [5]: 174.8 °C
IC50 [2, 11]: 1.3 ng/mL (≈ 0.00316 µM)
P. berghei (4 day) ED90 po (P. berghei [6]): <10/>10 mg/kg
ED50 (P. berghei [6]; Plasmodium berghei, 96 h, read-out: P. berghei (4 day) ED50 po): < 10 mg/kg

Cc1ccc(S(=O)(=O)NN=C2CCC3(CC2)OOC2(O3)C3CC4CC(C3)CC2C4)cc1 (stereo not drawn) [OZ39, Adamantane-2-spiro-3′-1′,2′,4′-trioxaspiro[4.5]decan-8′-one tosylhydrazone]
IC50 [4, 9]: 1.4 ng/mL (≈ 0.00314 µM)
IC50 [4, 12]: < 2 ng/mL
Tm dec. (° C.) [5]: 146.9 °C
IC50 [2, 10]: 1.8 ng/mL (≈ 0.00403 µM)
inhibition in vivo at 10 mg/kg ([3]; single 10 mg/kg po, read-out: Activity (%) po): 61%
inhibition in vivo at 10 mg/kg ([3]; single 10 mg/kg sc, read-out: Activity (%) sc): 99.3%

O=S1(=O)CCC2(CC1)OOC1(O2)C2CC3CC(C2)CC1C3 (stereo not drawn) [OZ50, Adamantane-2-spiro-3′-1′,2′,4′-trioxa-8′-thiaspiro[4.5]decane 8′,8′-dioxide]
IC50 [4, 9]: 1.1 ng/mL (≈ 0.0035 µM)
Tm dec. (° C.) [5]: 147.1 °C
IC50 [2, 10]: 1.2 ng/mL (≈ 0.00382 µM)

CCOC(=O)CC1CCC2(CC1)OOC1(O2)C2CC3CC(C2)CC1C3 (stereo not drawn) [OZ61, Adamantane-2-spiro-3′-8′-ethoxycarbonylmethyl-1′,2′,4′-trioxaspiro[4.5]decane]
IC50 (ng/ml) K1 ([4]; in vitro, K1 strain): 0.52 ng/mL (≈ 0.00148 µM)
Tm dec. (° C.) [5]: 161.7 °C
IC50 (ng/ml) NF54 ([2]; in vitro, NF54 strain): 0.53 ng/mL (≈ 0.00151 µM)
in vivo activity [3]: modest

c1ccc(C2CCC3(CC2)OOC2(CCC(c4ccccc4)CC2)O3)cc1 (stereo not drawn) [OZ62, 3,11-Diphenyl-7,14,15-trioxadispiro[5.1.5.2]pentadecane]
IC50 [4, 9]: 33 ng/mL (≈ 0.0905 µM)
Tm dec. (° C.) [5]: 201.0 °C
IC50 [2, 10]: 28 ng/mL (≈ 0.0768 µM)
Activity (%) po ([3]; single 10 mg/kg po): 0/0%
Activity (%) sc ([3]; single 10 mg/kg sc): 0/0%

Fc1ccc(C2(c3ccc(F)cc3)OOC3(CCC(c4ccccc4)CC3)O2)cc1 (stereo not drawn) [OZ66, 3,3-Bis(4-fluorophenyl)-8-phenyl-1,2,4-trioxaspiro[4.5]decane]
IC50 [4, 9]: 44 ng/mL (≈ 0.108 µM)
Tm dec. (° C.) [5]: 198.5 °C
IC50 [2, 10]: 36 ng/mL (≈ 0.0881 µM)
antimalarial activity, overall assessment [3]: completely inactive
Activity (%) po ([3]; single 10 mg/kg po): 0/0%
Activity (%) sc ([3]; single 10 mg/kg sc): 0/0%

CCOC(=O)C1CCC2(CC1)OOC1(O2)C2CC3CC(C2)CC1C3 (stereo not drawn) [OZ70, Adamantane-2-spiro-3′-8′-ethoxycarbonyl-1′,2′,4′-trioxaspiro[4.5]decane]
IC50 (ng/ml) K1 ([4]; in vitro, K1 strain): 1.2 ng/mL (≈ 0.00357 µM)
Tm dec. (° C.) [5]: 162.8 °C
IC50 (ng/ml) NF54 ([2]; in vitro, NF54 strain): 1.1 ng/mL (≈ 0.00327 µM)
Survival (days) po ([3]; single 10 mg/kg po): 7.7/7.7 days
Survival (days) sc ([3]; single 10 mg/kg sc): 7.7/7.7 days

O=C(O)[C@H]1CC[C@]2(CC1)OOC1(O2)C2CC3CC(C2)CC1C3 (stereo partly drawn) [OZ71, cis-Adamantane-2-spiro-3′-8′-carboxy-1′,2′,4′-trioxaspiro[4.5]decane]
IC50 (ng/ml) K1 ([4]; in vitro, K1 strain): 4.5 ng/mL (≈ 0.0146 µM)
Tm dec. (° C.) [5]: 165.9 °C
IC50 (ng/ml) NF54 ([2]; in vitro, NF54 strain): 3.7 ng/mL (≈ 0.012 µM)

O=C(O)[C@H]1CC[C@@]2(CC1)OOC1(O2)C2CC3CC(C2)CC1C3 (stereo partly drawn) [OZ72, trans-Adamantane-2-spiro-3′-8′-carboxy-1′,2′,4′-trioxaspiro[4.5]decane]
IC50 (ng/ml) K1 ([4]; in vitro, K1 strain): 15 ng/mL (≈ 0.0486 µM)
Tm dec. (° C.) [5]: 161.9 °C
IC50 (ng/ml) NF54 ([2]; in vitro, NF54 strain): 13 ng/mL (≈ 0.0422 µM)

O=C(O)CC1CCC2(CC1)OOC1(O2)C2CC3CC(C2)CC1C3 (stereo not drawn) [OZ78, Adamantane-2-spiro-3′-8′-carboxymethyl-1′,2′,4′-trioxaspiro[4.5]decane]
IC50 (ng/ml) K1 ([4]; in vitro, K1 strain): >10/>10 ng/ml
in vitro potency ([4]; in vitro): only weakly active
Tm dec. (° C.) [5]: 157.5 °C
IC50 (ng/ml) NF54 ([2]; in vitro, NF54 strain): >10/>10 ng/ml
in vivo activity [3]: promising

C1CC2(CCN1)OOC1(O2)C2CC3CC(C2)CC1C3.Cl (stereo not drawn) [OZ80, Adamantane-2-spiro-3′-1′,2′,4′-trioxa-8′-azaspiro[4.5]decane hydrochloride]
IC50 ([4]; K1, read-out: IC50 (ng/ml) K1): < 0.16 ng/mL
in vitro potency ([4]; in vitro): quite potent
Tm dec. (° C.) [5]: 129.8 °C
IC50 [2, 11]: 0.34 ng/mL
in vivo activity [3]: modest

c1ccc(C2(c3ccccn3)OOC3(O2)C2CC4CC(C2)CC3C4)nc1 (stereo not drawn) [OZ81, Adamantane-2-spiro-3′-5′,5′-bis(2′-pyridyl)-1′,2′,4′-trioxolane]
IC50 (ng/ml) K1 ([4]; in vitro, K1 strain): >10/>10 ng/ml
Tm dec. (° C.) [5]: 150.7 °C
IC50 (ng/ml) NF54 ([2]; in vitro, NF54 strain): >10/>10 ng/ml
antimalarial activity, overall assessment [3]: inactive
Activity (%) po ([3]; single 10 mg/kg po): 0/0%
Activity (%) sc ([3]; single 10 mg/kg sc): 0/0%

c1ccc2c(c1)CCCC21OOC2(O1)C1CC3CC(C1)CC2C3 (stereo not drawn) [OZ84, Adamantane-2-spiro-3′-1′,2′,4′-trioxolane-5′-spiro-1″-3″,4″-dihydro-2″H-naphthalene]
in vitro potency ([4]; in vitro): very active
Tm dec. (° C.) [5]: 164.5 °C
IC50 (ng/ml) NF54 ([2]; in vitro, NF54 strain): /1.9 ng/ml
in vivo activity [3]: good

c1ccc2c(c1)CCC1(C2)OOC2(O1)C1CC3CC(C1)CC2C3 (stereo not drawn) [OZ85, Adamantane-2-spiro-3′-1′,2′,4′-trioxolane-5′-spiro-2″-3″,4″-dihydro-1″H-naphthalene]
in vitro potency ([4]; in vitro): very active
Tm dec. (° C.) [5]: 152.8 °C
IC50 (ng/ml) NF54 ([2]; in vitro, NF54 strain): /2.0 ng/ml

CC1(O)CCC2(CC1)OOC1(O2)C2CC3CC(C2)CC1C3 (stereo not drawn) [OZ90, Adamantane-2-spiro-3′-8′-hydroxy-8′-methyl-1′,2′,4′-trioxaspiro[4.5]decane]
Tm dec. (° C.) [5]: 153.2 °C
IC50 (ng/ml) NF54 ([2]; in vitro, NF54 strain): /1.1 ng/ml
antimalarial activity, overall assessment [3]: quite active
